Data: paper PMC3261769 (Journal of Medicinal Chemistry, 2011)

How the values were obtained:
[1] = iv and os pharmacokinetics in mice; type: in vivo; settings: male, CD-1, mouse, plasma, 5 mg/kg
[2] = system: MCF-7 human breast carcinoma cells; settings: read-out: IC50 ± SD MCF-7; ref [16]; cited from earlier work
[3] = system: HAOSMC human aortic smooth muscle cells; settings: read-out: IC50 ± SD HAOSMC; ref [16]; cited from earlier work
[4] = system: A10 rat embryonic aortic smooth muscle cells; settings: read-out: IC50 ± SD A10; ref [16]; cited from earlier work
[5] = system: PtK2 kidney epithelial cells; settings: read-out: IC50 ± SD PtK2; ref [16]; cited from earlier work
[6] = system: HUVEC human umbilical vein endothelial cells; settings: read-out: IC50 ± SD HUVEC; ref [16]; cited from earlier work
[7] = system: tubulin; test: Inhibition of tubulin polymerization; type: biochemical; settings: read-out: tubulin assembly inhibition; footnotes of Table 4
[8] = system: A2780wt cells; test: Growth inhibition of A2780wt cells; type: cell-based, human; settings: read-out: IC50 ± SD A2780wt
[9] = system: A2780-CIS cells (cisplatin-resistant); test: Growth inhibition of A2780-CIS cells; type: cell-based, human
[10] = system: OVCAR-3 cells; test: Growth inhibition of OVCAR-3 cells; type: cell-based, human

Work on COc1cc(Sc2c(-c3cc[nH]c3)[nH]c3ccccc23)cc(OC)c1OC [Compound 5, 2-(1H-Pyrrol-3-yl)-3-[(3′,4′,5′-trimethoxyphenyl)thio]-1H-indole] yielded a clearance [1] of 28.6 mL/min/kg.

In the case of CC(=O)O[C@H]1C(=O)[C@@]2(C)[C@H]([C@H](OC(=O)c3ccccc3)[C@]3(O)C[C@H](OC(=O)[C@H](O)[C@@H](NC(=O)c4ccccc4)c4ccccc4)C(C)=C1C3(C)C)[C@]1(OC(C)=O)CO[C@@H]1C[C@@H]2O [PTX, paclitaxel], the IC50 [2] is listed as 3 ± 0.5 nM, the IC50 [3] is listed as 6 ± 6 nM and the IC50 [4] is listed as 38 ± 10 nM. For the same compound, the IC50 [5] was 21 ± 8 nM and the IC50 [6] was 7 ± 4 nM.

In the case of CCC1=C[C@@H]2CN(C1)Cc1c([nH]c3ccccc13)[C@@](C(=O)OC)(c1cc3c(cc1OC)N(C)[C@H]1[C@@](O)(C(=O)OC)[C@H](OC(C)=O)[C@]4(CC)C=CCN5CC[C@]31[C@@H]54)C2 [VRB, vinorelbine], the IC50 [7] is reported as 3100 nM.

In the case of N.N.[Cl][Pt][Cl] [cisplatin], the IC50 [8] is reported as 485 ± 60 nM, the “RI-1 (Resistant Index-1)” value ([9]; IC50 in A2780-CIS divided by IC50 in A2780wt) is reported as 18.5 and the IC50 ([9]; read-out: IC50 ± SD A2780-CIS) is reported as 8980 ± 565 nM. The “RI-2 (Resistant Index-2)” value ([10]; IC50 in OVCAR-3 divided by IC50 in A2780wt) was 3.7 and the IC50 ([10]; read-out: IC50 ± SD OVCAR-3) was 1820 ± 254 nM.
